Reference: patent publication US4522815A, “Anthracycline glycosides” (priority 1982, dated 1985)
Values after ≈ are worked out from the molar mass of the structure shown. Read-outs that look alike come from different tables or passages of the source.

Tests used:
[1] = test system: ascitic P388 leukemia; assay: Antitumor activity against ascitic P388 leukemia in CDF-1 mice, treatment i.p. on day 1; format: in vivo
Experimental: The primary screening […] was carried out in CDF-1 mice bearing ascitic P388 leukemia (10^6 cells/mouse). Both IIa and IIc were suspended in 10%. Tween 80 and injected intraperitoneally.
Results of the primary screening "in vivo" carried out in CDF-1 mice bearing P388 ascitic leukemia and treated i.p. the day after tumor transplantation, are reported in Table 5.
Antitumor activity against ascitic P388 leukekemia.
(§1) Treatment i.p. on day 1.
^a median survival time; % over untreated controls
^b long term survivors (≥ 60 days)
^c evaluated on the basis of autoptic findings on dead mice
(§2) ^d data of two experiments (range)
^e date of three experiments (range)
Antitumor activity of Ib and Id against ascitic P388
as §1

[2] = test system: HeLa cells; assay: Colony inhibition test against HeLa cells in vitro (cloning efficiency), treatment for 24 hrs; format: cell-based; conditions: for IC50: HeLa colony inhibition; for activity at 0.0062 µg/mL: 6.2 ng/ml; for activity at 0.0125 µg/mL: 12.5 ng/ml; for activity at 0.025 µg/mL: 25 ng/ml
[3] = test system: Gross leukemia; assay: Antitumor activity against i.v. transplanted Gross leukemia in C3H/Me mice, treatment i.v. on day 1; format: in vivo; conditions: for T/C, median survival time; % over untreated controls / Toxic deaths: Table 6
Description: (§3) Results of studies performed in C3H/Me mice carrying i.v. transplanted Gross leukemia and treated i.v. the day after tumor transplantation, are reported in Table 6. […] The compounds Ib and Id were further investigated for oral activity on Gross leukemic transplanted i.v., in comparison with DNR, DX given i.v. and 4-dm DNR given oral route.
Antitumor activity against i.v. Gross leukemia.
Treatment i.v. on day 1.

[4] = test system: P388 leukemia cells resistant to DX (P388/DX); assay: Cytotoxicity on doxorubicin-resistant P388/DX leukemia cells in vitro, 48 hrs exposure; format: cell-based, mice
Experimental: Compounds Ib and Id were studied "in vitro" on HeLa and P388 leukemia cells sensitive (P388) and resistant (P388/DX) to DX and […].
Compound Ib was studied on P388/DX "in vitro".
P388 and P388/DX leukemia cells were harvested from mice ascitic fluid and adapted to grow in suspension "in vitro". Cytotoxicity tests were carried out exposing the cells to various drug concentrations for 48 hrs; at the end of the exposure period, cells were counted with a coulter cell counter, and the ID50 (dose which gives 50% reduction of the cell number in comparison with untreated controls) was calculated.
Effect on sensitive and doxorubicin-resistant P388
^a Dose giving 50% reduction of cell number in comparison with
^c P388 leukemia cells resistant to DX
^d Ratio between ID50 on P388/DX and ID50 on P388

[5] = test system: P388 leukemia cells sensitive to DX; assay: Cytotoxicity on doxorubicin-sensitive P388 leukemia cells in vitro, 48 hrs exposure; format: cell-based, mice; conditions: Mus musculus, P388; dose giving 50% reduction of cell number vs untreated controls; 48 hrs; read-out: ID50 P388
Description: P388 and P388/DX leukemia cells were harvested from mice ascitic fluid and adapted to grow in suspension "in vitro".

[6] = test system: Gross leukemia; assay: Oral activity against i.v. transplanted Gross leukemia (i.v. comparators); format: in vivo, C3H/Me mice; conditions: for T/C %, median survival time / Toxic deaths: Table 7
Description: as §3
Oral activity of Ib and Id against Gross leukemia
^a days after transplantation
as §2

[7] = Table 2, 4.4 mg/kg i.p. day 1, two experiments
[8] = Table 2, 6.6 mg/kg i.p. day 1, two (DNR) or three (DX) experiments
[9] = Table 5, 2.9 mg/kg i.p. day 1, two experiments
[10] = Table 5, 4.4 mg/kg i.p. day 1, DNR: two experiments
[11] = Homo sapiens, HeLa, 24 h, read-out: No of colonies, % of untreated controls, Table 1, 24 hrs
[12] = Homo sapiens, HeLa, 24 h, read-out: No of colonies, % of untreated controls, Table 3, 24 hrs
[13] = Homo sapiens, HeLa, Table 3, 24 hrs, read-out: No of colonies, % of untreated controls

## COc1cccc2c1C(=O)c1c(O)c3c(c(O)c1C2=O)C[C@@](O)(C(C)=O)C[C@@H]3O[C@H]1C[C@H](N)[C@H](O)[C@H](C)O1 [DNR, daunorubicin, reference compound]
[1]; Table 2, 2.9 mg/kg i.p. day 1
  LTS, long term survivors (≥ 60 days): 0/10
  T/C, median survival time; % over untreated controls: 160%
  Toxic deaths (autoptic findings on dead mice): 0/10
[1]; Table 2, 4.4 mg/kg i.p. day 1, data of two experiments (range)
  T/C, median survival time; % over untreated controls: 165-170%
[1]; [7]
  LTS, long term survivors (≥ 60 days): 0/10
  Toxic deaths (autoptic findings on dead mice): 0/20
[1]; Table 2, 6.6 mg/kg i.p. day 1, range of two (DNR) or three (DX) experiments
  T/C, median survival time; % over untreated controls: 150-160%
[1]; [8]
  LTS, long term survivors (≥ 60 days): 0/10
  Toxic deaths (autoptic findings on dead mice): 7/20
[1]; [9]
  LTS, long term survivors (≥ 60 days): 0/18
  Toxic deaths (autoptic findings on dead mice): 0/8
[1]; Table 5, 2.9 mg/kg i.p. day 1, two experiments (range)
  T/C, median survival time; % over untreated controls: 159-194%
[1]; [10]
  LTS, long term survivors (≥ 60 days): 0/18
  Toxic deaths (autoptic findings on dead mice): 7/18
[1]; Table 5, 4.4 mg/kg i.p. day 1, DNR: two experiments (range)
  T/C, median survival time; % over untreated controls: 140-184%
[2]; Homo sapiens, HeLa, 24 h, read-out: ID50, Table 1, 24 hrs
  IC50: ~0.016 µg/mL (≈ 0.0303 µM)
[2]; Homo sapiens, HeLa, 24 h, read-out: ID50, Table 3, 24 hrs
  IC50: ~0.012 µg/mL (≈ 0.0227 µM)
[2]; [11]
  activity at 0.0062 µg/mL: 106%
  activity at 0.0125 µg/mL: 74%
  activity at 0.025 µg/mL: 12%
[2]; [12]
  activity at 0.0062 µg/mL: 83%
  activity at 0.0125 µg/mL: 51%
  activity at 0.025 µg/mL: 9%
[3]; 15 mg/kg i.v. day 1
  T/C, median survival time; % over untreated controls: 171%
  Toxic deaths: 0/8
[3]; 22.5 mg/kg i.v. day 1
  T/C, median survival time; % over untreated controls: 171%
  Toxic deaths: 0/8
[4]; Mus musculus, P388/DX, dose giving 50% reduction of cell number vs untreated controls, 48 hrs, read-out: ID50 P388/DX
  IC50: 0.8 µg/mL (≈ 1.52 µM)
[4]; P388/DX vs P388, 2880 min
  fold less active on the resistant than on the sensitive line: about 500 fold
[4]; Table 4, 2880 min
  R: Ratio between ID50 on P388/DX and ID50 on P388: 470
[5]
  IC50: 0.0017 µg/mL (≈ 0.00322 µM)
[6]; i.v. +1, 15 mg/kg
  T/C %, median survival time: 200%
  Toxic deaths: 0/10
[6]; i.v. +1, 22.5 mg/kg
  T/C %, median survival time: 125%
  Toxic deaths: 6/10

## C[C@@H]1O[C@@H](O[C@H]2C[C@](O)(C(=O)CO)Cc3c(O)c4c(c(O)c32)C(=O)c2ccccc2C4=O)C[C@H](O)[C@H]1O [Compound Id, 4-demethoxy-7-0-(2,6-dideoxy-α-L-arabino-hexopyranosyl)-adriamycinone]
[1]; Table 5, 1.12 mg/kg i.p. day 1
  LTS, long term survivors (≥ 60 days): 0/10
  T/C, median survival time; % over untreated controls: 170%
  Toxic deaths (autoptic findings on dead mice): 0/10
[1]; Table 5, 1.68 mg/kg i.p. day 1
  LTS, long term survivors (≥ 60 days): 0/10
  T/C, median survival time; % over untreated controls: 185%
  Toxic deaths (autoptic findings on dead mice): 0/10
[1]; Table 5, 2.53 mg/kg i.p. day 1
  LTS, long term survivors (≥ 60 days): 1/10
  T/C, median survival time; % over untreated controls: 230%
  Toxic deaths (autoptic findings on dead mice): 2/10
[1]; ascitic P388, i.p. day 1
  times more potent than DX: about 5 times
[1]; vs DX
  antileukemia activity against P388 leukemia: good but lower than that of DX
[2]; HeLa cells cloning efficiency
  cytotoxicity in comparison with DX: as cytotoxic as DX
[2]; Homo sapiens, HeLa, Table 3, 1.5 ng/ml, 24 hrs, read-out: No of colonies, % of untreated controls
  activity at 0.0015 µg/mL: 106%
[2]; [13]
  activity at 0.0062 µg/mL: 59%
  activity at 0.025 µg/mL: 0%
[2]; Homo sapiens, HeLa, Table 3, 100 ng/ml, 24 hrs, read-out: No of colonies, % of untreated controls
  activity at 0.1 µg/mL: 0%
[2]; Homo sapiens, Table 3, 24 hrs, read-out: ID50 (the source's name)
  IC50: ~0.007 µg/mL (≈ 0.0136 µM)
[3]; Gross leukemia, i.v. day 1
  antitumor activity, comparison of the Mx TD: good antitumor activity, which is of the same order of magnitude as that of DX
  toxicity and potency vs parent compounds: more toxic and more potent than the parent compounds
[3]; 1.2 mg/kg i.v. day 1
  T/C, median survival time; % over untreated controls: 171%
  Toxic deaths: 1/10
[3]; 2.16 mg/kg i.v. day 1
  T/C, median survival time; % over untreated controls: 200%
  Toxic deaths: 1/10
[3]; 3.8 mg/kg i.v. day 1
  T/C, median survival time; % over untreated controls: 114%
  Toxic deaths: 5/9
[6]; oral +1, 1.2 mg/kg
  T/C %, median survival time: 171%
  Toxic deaths: 0/9
[6]; oral +1, 2.1 mg/kg
  T/C %, median survival time: 185%
  Toxic deaths: 0/8
[6]; oral +1, 3.8 mg/kg
  T/C %, median survival time: 214%
  Toxic deaths: 3/8
[6]; oral days 1,2,3, 0.48 mg/kg
  T/C %, median survival time: 183%
  Toxic deaths: 0/10
[6]; oral days 1,2,3, 0.62 mg/kg
  T/C %, median survival time: 208%
  Toxic deaths: 0/10
[6]; oral days 1,2,3, 0.8 mg/kg, two experiments
  Toxic deaths: 2/20
[6]; oral days 1,2,3, 0.8 mg/kg, two experiments (range)
  T/C %, median survival time: 233-258%
[6]; oral day 1, Gross leukemia, Id at the Mx TD vs DX i.v.
  antitumor activity given orally at day 1: less active than DX i.v.
[6]; oral days 1,2,3, vs DX i.v.
  antitumor activity given orally days 1,2,3: higher than that of DX given i.v.
